≈ marks a conversion by molar mass, not a printed value.
Assays:
[1] = tested on: A549; experiment: Cytotoxicity against human A549 cells after 7 days by MTT assay; assay type: functional; conditions: A549, 168 h, read-out: ED50 (the source's name)
[2] = tested on: MCF7; experiment: Cytotoxicity against human MCF7 cells after 7 days by MTT assay; assay type: functional; conditions: MCF7, 168 h, read-out: ED50 (the source's name)
[3] = tested on: A498; experiment: Cytotoxicity against human A498 cells after 7 days by MTT assay; assay type: functional; conditions: A498, 168 h, read-out: ED50 (the source's name)
[4] = tested on: PC-3; experiment: Cytotoxicity against human PC3 cells after 7 days by MTT assay; assay type: functional; conditions: PC-3, 168 h, read-out: ED50 (the source's name)
[5] = tested on: HT-29; experiment: Cytotoxicity against human HT29 cells after 7 days by MTT assay; assay type: functional; conditions: for EC50: Homo sapiens, HT-29, 168 h, read-out: ED50 (the source's name)
[6] = Toxicity in brine shrimp larvae; assay type: organism-based; conditions: artemia, in vivo
[7] = tested on: MIA PaCa-2; experiment: Cytotoxicity against human MIAPaCa2 cells after 7 days by MTT assay; assay type: functional; conditions: MIA PaCa-2, 168 h, read-out: ED50 (the source's name)

Structure (SMILES) | EC50 [1] | EC50 [2] | EC50 [3] | EC50 [4] | EC50 [5] | LC50 [6] | EC50 [7] | ED50 [5]
CCCCCCCCCCCCCCC(Cl)[C@@H]1CC[C@H]([C@@H]2CC[C@@H](CCCCC[C@H](Cl)CC3=C[C@H](C)OC3=O)O2)O1 (stereo not given in full) | 2.39 µg/mL (≈ 3.88 µM) | > 10 µg/mL | 2.47 µg/mL (≈ 4.01 µM) | 0.755 µg/mL (≈ 1.23 µM) | > 10 µg/mL | 31.9 µg/mL (≈ 51.8 µM) | 1.16 µg/mL (≈ 1.88 µM) | 
CCCCCCCCCCCCCC[C@@H](O)[C@H](O)CC[C@H](O)[C@@H]1CC[C@@H](CCCCC[C@@H](O)CC2=C[C@H](C)OC2=O)O1 [GIGANTETROCIN A] | 0.25 µg/mL (≈ 0.419 µM) | 0.63 µg/mL (≈ 1.06 µM) |  |  |  | 2.6 µg/mL (≈ 4.36 µM) |  | 4.1 ×10⁻⁵ ug/ml
CCCCCCCCCCCCCC[C@H](O)[C@@H]1CC[C@@H]([C@@H]2CC[C@@H](CCCCC[C@@H](O)CC3=C[C@H](C)OC3=O)O2)O1 [ASIMILOBIN] |  |  |  |  | 0.063 µg/mL (≈ 0.109 µM) |  |  | 
CCCCCCCCCCCCCC[C@@H](O)[C@H](O)CC[C@H](O)[C@@H]1CC[C@@H](CCCCC[C@H](Cl)CC2=C[C@H](C)OC2=O)O1 | > 10 µg/mL | 5.74 µg/mL (≈ 9.33 µM) | > 10 µg/mL | > 10 µg/mL | 0.38 µg/mL (≈ 0.618 µM) | 54.6 µg/mL (≈ 88.7 µM) | > 10 µg/mL | 
COc1cccc2c1C(=O)c1c(O)c3c(c(O)c1C2=O)C[C@@](O)(C(=O)CO)C[C@@H]3O[C@H]1C[C@H](N)[C@H](O)[C@H](C)O1 [DOXORUBICIN] | 0.0243 µg/mL (≈ 0.0447 µM) | 0.209 µg/mL (≈ 0.385 µM) | 0.00649 µg/mL (≈ 0.0119 µM) | 0.0262 µg/mL (≈ 0.0482 µM) | 0.0346 µg/mL (≈ 0.0637 µM) |  | 0.0079 µg/mL (≈ 0.0145 µM) | 

— ChEMBL document CHEMBL1158306, “Chlorinated annonaceous acetogenins and their bioactivities” (J Nat Prod, 1996)
